From paper PMC6337631, “Effective Tetradentate Compound Complexes against Leishmania spp. that Act on Critical Enzymatic Pathways of These Parasites” (Molecules, 2018)

Assays:
[1] = test system: Leishmania braziliensis amastigote forms; experiment: Amastigote test (intracellular forms in J774.2 macrophages), L. braziliensis; assay type: cell-based; details: Leishmania braziliensis, 72 h, mean ± SD
Experimental: (§1) Promastigote forms of three different Leishmania spp., L. donovani (MHOM/PE/84/LC26), L. infantum (MCAN/ES/2001/UCM-10) and L. braziliensis (MHOM/BR/1975/M2904), were cultured in vitro in Medium Trypanosomes Liquid (MTL) supplemented with 10% inactivated foetal calf serum (FCS) in an air atmosphere at 28 °C, in Roux flasks (Corning, Manassas, VA, USA) with a surface area of 75 cm^2, according to [33].
(§2) The compounds and the reference drug Glu were dissolved in DMSO (Panreac, Barcelona, Spain) and tested from 100 µM to 1 µM with 0.1% (v/v) DMSO final concentration in plates. Therefore, controls were prepared including 0.1% (v/v) of this component, as previously described.
(§3) J774.2 macrophages were grown and seeded at a density of 1 × 10^4 cells/well in 24-well microplates (Nunc) with rounded coverslips on the bottom and cultured for 48 h in humidified 95% air, 5% CO2 atmosphere at 37 °C in Minimal Essential Medium (MEM) with 2 mM glutamine and 20% (v/v) inactivated FCS. Adherent macrophages were infected with metacyclic promastigotes in the stationary growth phase of L. donovani, L. infantum and L. braziliensis at a multiplicity of infection (MOI) ratio of 1:10 and maintained for 24 h. Non-phagocytosed parasites were removed by washing, and after addition of the testing compounds at concentrations from 100 µM to 1 µM, cultured in 500 μL/well volumes. Control cultures were also included. After 72 h incubation, leishmanicidal activity was assessed based on the number of amastigotes in treated and untreated cultures in methanol-fixed and Giemsa-stained preparations by analyzing 500 host cells distributed in randomly chosen microscopic fields. The leishmanicidal effect was calculated as described to determine the leishmanicidal activity in the promastigote forms. Each drug concentration was tested in triplicate in four separate determinations.

[2] = test system: Leishmania donovani amastigote forms; experiment: Amastigote test (intracellular forms in J774.2 macrophages), L. donovani; assay type: cell-based; details: Leishmania donovani, 72 h, mean ± SD
Experimental: as §1, §2, §3

[3] = test system: L. donovani promastigotes; experiment: Metabolite excretion by 1H-NMR, L. donovani; assay type: cell-based, Leishmania donovani; details: IC25 concentration, 72 h, vs untreated
Experimental: Trypanosomatids catabolizes glucose at a high rate, excreting into the medium partly oxidized end products such as acetate, succinate, L-alanine or L-lactate.
Cultures of L. donovani, L. infantum and L. braziliensis promastigotes were seeded in culture flaks at 5 × 10^5 cells/mL, and after the addition of the compounds at IC25 concentrations at 28 °C. Control cultures were also included. After 72 h of incubation, parasites were centrifuged at 400 × g for 10 min, and supernatants were collected in order to determine the excreted metabolites by ^1H-NMR. Chemical shifts were expressed in parts per million (ppm) using sodium 2,2-dimethyl-2-silapentane-5-sulphonate as the reference signal. The One-dimensional ^1H-NMR spectra were acquired with a VARIAN DIRECT DRIVE 400 MHz Bruker spectrometer (Rheinstetten, Germany) with an AutoX probe using D2O as solvent. The chemical shifts used to identify the respective metabolites were consistent with those described previously by some of the authors. The spectral region of 1.0–5.5 ppm was bucketed into a frequency window of 0.1 ppm. The peak (2.6 ppm) corresponding to DMSO was removed before binning, and the regions corresponding to water (4.5–5.5 ppm) and glucose (3.4–3.8 ppm) were excluded during binning to avoid artefacts due to pre-saturation. The aromatic region was excluded because the signal to noise ratio in this region was poorer in comparison to the aliphatic region. The resulting integrals were normalised to the working region (1.0–3.4) ppm of the spectrum to correct for inter-sample differences in dilution. The binning and normalisations were achieved using Mestrenova 9.0 software (Santiago de Compostela, Spain). The matrix obtained in Mestrenova was imported into Microsoft Excel (Redmond, WA, USA) for further data analyses.

human CuZn-SOD = target: T1, human CuZn-SOD (Homo sapiens, UniProt P00441); experiment: SOD inhibition assay, human CuZn-SOD; assay type: biochemical; details: assayed 100 µM to 0.1 µM; non-linear regression
T1 construct: purchased Sigma Chemical Co. (St. Louis, MO, USA)
Experimental: The previous extraordinary results prompted us to evaluate the inhibitory effect of 3, 5–8 and 10 on the SOD activity. […]
Parasite cells were collected in the exponential growth phase by centrifugation (400g for 10 min). The pellet obtained after centrifugation was lysated by sonication, processed according to [38] and obtained the homogenate fraction which contained the parasite Fe-SOD. The protein content was quantified using the Sigma Bradford test, which uses BSA as a standard (no trace ability was certified for the BSA standard). Superoxide dismutase activities were determined using a method previously described, which measures the reduction in nitrobluetetrazolium (NBT) by superoxide ions. Human CuZn-SOD. Substrates used in these assays were obtained from Sigma Chemical Co. (St. Louis, MO, USA). Resulting data were analysed using the Newman−Keuls test.

[4] = test system: Leishmania braziliensis promastigote forms; experiment: Promastigote test (extracellular forms), L. braziliensis; assay type: cell-based; details: Leishmania braziliensis; 72 h; 100 µM to 1 µM; mean ± SD
Experimental: as §1, §2
Promastigote forms were collected in the exponential growth phase and seeded at 1 × 10^5 parasites/mL in 24-well microplates (Nunc, Naperville, IL, USA), after adding each compound at concentrations from 100 µM to 1 µM and cultured in 500 μL/well volumes at 28 °C. After 72 h incubation, the leishmanicidal activity was assessed using a Neubauer haemocytometric chamber in comparison with the control cultures. […] Each drug concentration was tested in triplicate in four separate determinations.

[5] = test system: L. donovani promastigotes; experiment: Ultrastructural alterations by TEM, L. donovani; assay type: cell-based, Leishmania donovani; details: 72 h at IC25 concentration
Experimental: Parasites were cultured at a density of 5 × 10^5 cells/mL with medium containing the tested compounds at IC25 concentrations. After 72 h at 28 °C, the cultures were processed using a technique previously described and analysed by TEM (LIBRA 120 PLUS, Zeiss, Barcelona, Spain).

T1 sequence (P00441 whole entry): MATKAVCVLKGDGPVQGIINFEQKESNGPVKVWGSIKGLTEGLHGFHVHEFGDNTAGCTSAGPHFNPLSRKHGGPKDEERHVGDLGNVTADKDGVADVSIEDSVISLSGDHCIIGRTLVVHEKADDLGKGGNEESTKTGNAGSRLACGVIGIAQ

SMILES: CN(C)c1ccnc(CN2CCC[C@H]2[C@@H]2CCCN2Cc2cc(N(C)C)ccn2)c1 [Compound 7]
- IC50 [1]: 8.5 ± 0.3 µM
- IC50 [2]: 1.1 ± 0.2 µM
- Excretion variation ACETATE, L. donovani [3]: > 50%
- Excretion variation L-ALANINE, L. donovani [3]: 64%
- Excretion variation SUCCINATE, L. donovani [3]: > 50%
- IC50 (human CuZn-SOD): > 500 µM
- IC50 [4]: 11.7 ± 0.8 µM
- ultrastructural alterations of L. donovani promastigotes (TEM) [5]: cytoplasmic emptiness, none or a few ribosomes, swollen and disintegrated mitochondria and abundant lipid and non-lipid vacuoles
